The values below come from article PMC8355150, “Bioactive recombinant human oncostatin M for NMR-based screening in drug discovery” (Scientific Reports, 2021).

Structures are written as SMILES.

The Kd is the equilibrium constant for the complex coming apart.

This assay has as its target T1, Oncostatin M (OSM, rhOSM) (Homo sapiens, UniProt P13725).
T1 construct: residues 1–187
T1 sequence (P13725 26-212): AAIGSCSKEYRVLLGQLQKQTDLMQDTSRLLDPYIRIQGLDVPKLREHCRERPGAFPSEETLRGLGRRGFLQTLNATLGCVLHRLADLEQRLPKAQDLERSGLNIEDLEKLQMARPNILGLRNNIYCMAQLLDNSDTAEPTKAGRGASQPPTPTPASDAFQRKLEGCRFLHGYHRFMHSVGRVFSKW
In words: 1H, […] HSQC NMR titration (chemical shift perturbation); fluorescence quenching (Kd […]). Format: binding.

In the case of `O=C(O)/C=C/c1cc(-c2ccc3c(c2)OCO3)c(-c2ccc3c(c2)OCO3)o1` [OSM-SMI-10B], the Kd stood at 12.2 ± 3.9 µM.
